# Like-named read-outs stand apart in the source and are kept apart here.
# Test system: TG-I m RNA
# Test: Expression amounts of TG-I mRNA by RT-PCR in cultured corneal epithelial cells (G3PDH internal standard)
# Format: cell-based, human
# Details: for inhibition at 1 µM: read-out: inhibition (of TG-I m RNA expression)
# Protocol: Glyceraldehyde-3-phosphoric acid dehydrogenase (G3PDH) was used as an internal standard in consideration of scatter of template total RNA amounts.
# Cultured SV40 immortalized human corneal epithelial cells (1 × 10^6 cells) were cultured in a culture medium (DMEM/F12) containing a test compound under a condition of 37°C and 5% CO2 for 72 hours. After culturing, total RNA was extracted according to the AGPC method. Then, RT-PCR was carried out using a primer which is specific for TG-I m RNA or G3PDH m RNA using a Takara RNA-PCR kit (AMV). PCR products were electrophoresed on 1% agarose gel, and bands were detected with a transilluminator. Cells cultured in a culture medium containing no test compound in the same manner were used as a control.
# The expression amounts of TG-I m RNA were calculated according to the following equation 1 so that an expression amount in the control was 100. Expression amount = (B/A) × 100 [formula] • A: A band area of a TG-I amplified fragment on the basis of a band area of a G3PDH amplified fragment in the control • B: A band area of a TG-I amplified fragment on the basis of a band area of a G3PDH amplified fragment in the presence of the test compound
SMILES,"inhibition of TG-I m RNA expression, dependence on concentration (10 nM, 100 nM and 1000 nM)","mrna remaining at 0.01 µM (Corneal epithelial cell, 10 nM test compound, 72 hours culture, SV40 immortalized human corneal epithelial cells, control = 100, read-out: Expression amount)","mrna remaining at 0.1 µM (Corneal epithelial cell, 100 nM test compound, 72 hours culture, SV40 immortalized human corneal epithelial cells, control = 100, read-out: Expression amount)","mrna remaining at 1 µM (Corneal epithelial cell, 1000 nM test compound, 72 hours culture, SV40 immortalized human corneal epithelial cells, control = 100, read-out: Expression amount)","inhibition at 0.01 µM (Homo sapiens, Corneal epithelial cell, 72 h, concentration of 10 nM)","mrna remaining at 0.01 µM (Homo sapiens, Corneal epithelial cell, 72 h, concentration of 10 nM, relative to control, read-out: expression amounts of TG-I m RNA in the corneal epithelial cells)","inhibition at 0.1 µM (Homo sapiens, Corneal epithelial cell, 72 h, concentration of 100 nM)","mrna remaining at 0.1 µM (Homo sapiens, Corneal epithelial cell, 72 h, concentration of 100 nM, relative to control, read-out: expression amounts of TG-I m RNA in the corneal epithelial cells)","inhibition at 1 µM (Homo sapiens, Corneal epithelial cell, 72 h, concentration of 1000 nM)","mrna remaining at 1 µM (Homo sapiens, Corneal epithelial cell, 72 h, concentration of 1000 nM, relative to control, read-out: expression amounts of TG-I m RNA in the corneal epithelial cells)","mrna remaining at 1 µM (Homo sapiens, Corneal epithelial cell, 72 h, read-out: Expression amount)","mrna remaining at 1 µM (Homo sapiens, Corneal epithelial cell, 72 h, read-out: expression amounts of TG-I m RNA in the corneal epithelial cells)","inhibition at 1 µM (Homo sapiens, Corneal epithelial cell, 72 h)","inhibitory effect relative to that of 1α , 24 (R)-dihydroxyvitamin D3 (comparative compound at 1000 nM)"
"C=C1/C(=C\C=C2/CCC[C@]3(C)[C@@H]([C@H](C)CC[C@@H](O)C(C)C)CC[C@@H]23)C[C@@H](O)C[C@@H]1O [1α , 24 (R)-Dihydroxyvitamin D3]",concentration-dependent inhibition was observed,66%,39%,22%,34%,66%,61%,39%,78%,22%,–,–,–,–
"C=C1/C(=C\C=C2/CCC[C@]3(C)[C@@H]([C@H](C)CCCC(C)(C)O)CC[C@@H]23)C[C@@H](O)C[C@@H]1O [1α , 25-Dihydroxyvitamin D3]",–,–,–,–,–,–,–,–,–,–,48%,48%,52%,one tenth or less
